Where a name gives a salt, the structure may show the parent alone.

The target of the assay is LsrK (Salmonella typhimurium, UniProt Q8ZKQ6). In words: biochemical. Type of assay: biochemical, S. typhimurium. The following applies: for Inhibition (%): 50 µM.
LsrK, sequence (Q8ZKQ6 whole entry): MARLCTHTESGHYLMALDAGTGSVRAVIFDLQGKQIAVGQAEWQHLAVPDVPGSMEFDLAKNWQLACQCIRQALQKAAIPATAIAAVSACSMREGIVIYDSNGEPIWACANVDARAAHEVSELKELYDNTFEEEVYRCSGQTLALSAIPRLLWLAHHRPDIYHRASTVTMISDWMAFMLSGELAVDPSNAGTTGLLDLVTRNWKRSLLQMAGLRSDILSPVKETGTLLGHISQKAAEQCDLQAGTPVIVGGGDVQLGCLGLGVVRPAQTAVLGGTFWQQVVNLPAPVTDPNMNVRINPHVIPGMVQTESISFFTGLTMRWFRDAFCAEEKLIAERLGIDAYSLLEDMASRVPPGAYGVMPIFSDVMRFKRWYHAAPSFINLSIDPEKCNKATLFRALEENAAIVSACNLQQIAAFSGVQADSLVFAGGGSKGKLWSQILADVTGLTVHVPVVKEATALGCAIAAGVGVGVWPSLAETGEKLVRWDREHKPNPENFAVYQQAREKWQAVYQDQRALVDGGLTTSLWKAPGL

The inhibition is the relative decrease from the control value, in per cent. Turning to `CC(C)c1ccc2c(c1)CC[C@H]1[C@](C)(C(N)=O)CCC[C@]21C` [DEHYDROABIETAMIDE], the inhibition at 50 µM was 2%. Regarding `C[C@H](CCC(=O)O)[C@H]1CC[C@H]2[C@@H]3C(=O)C[C@@H]4CC(=O)CC[C@]4(C)[C@H]3CC(=O)[C@]12C` [DEHYDROCHOLIC ACID], the inhibition at 50 µM is 4%.

For `C=C(C)[C@H]1Cc2c(ccc3c(=O)c4c(oc23)COc2cc(OC)c(OC)cc2-4)O1` [DEHYDROROTENONE], the inhibition at 50 µM was determined as 1%.

As to `COc1ccc2c(c1)OCc1c-2oc2cc(OC)ccc12` [DEHYDROVARIABILIN], the inhibition at 50 µM amounted to 1%. Still for that read-out and setting: to `CN(C)[C@@H]1C(O)=C(C(N)=O)C(=O)[C@@]2(O)C(O)=C3C(=O)c4c(O)ccc(Cl)c4[C@@H](O)[C@H]3C[C@@H]12` [DEMECLOCYCLINE HYDROCHLORIDE] belongs 109%. Still for that read-out and setting: to `CC[N+](CC)(CC(=O)Nc1c(C)cccc1C)Cc1ccccc1` [DENATONIUM BENZOATE] belongs 1%; to `Nc1ncnc2c1ncn2[C@H]1C[C@H](O)[C@@H](CO)O1` [DEOXYADENOSINE], 3%. On to `CC(=O)O[C@@H]1C[C@H]2C(C)(C)C(=O)C=C[C@]2(C)[C@H]2CC[C@]3(C)C(=CC(=O)O[C@H]3c3ccoc3)[C@@]21C` [DEOXYGEDUNIN], for which the “Inhibition (%)” value came out at 0.

`CC(=O)O[C@H]1C[C@@H](OC(C)=O)C(C)(C)[C@@H]2C[C@@H](OC(C)=O)[C@@]3(C)C4=CC(=O)O[C@@H](c5ccoc5)[C@]4(C)CC[C@@H]3[C@@]12C` [DEOXYKHIVORIN]: the “Inhibition (%)” value came to 1.

With `COc1ccc(-c2cc(C(F)F)nn2-c2ccc(S(N)(=O)=O)cc2)cc1F` [DERACOXIB], the inhibition at 50 µM is 2%.

Regarding `C=C[C@@]1(C)CC(=O)[C@@]2(O)[C@](C)(O1)[C@@H](O)[C@@H](O)C1C(C)(C)CC[C@H](O)[C@@]12C` (some centres unmarked) [DESACETYLCOLFORSIN], the “Inhibition (%)” value was 1. Consider `CC1(C)O[C@@H]2C[C@H]3[C@@H]4CCC5=CC(=O)C=C[C@]5(C)[C@H]4[C@@H](O)C[C@]3(C)[C@]2(C(=O)CO)O1` [DESONIDE], for which the inhibition at 50 µM stood at 0%.

`CC(=O)OCC(=O)[C@H]1CC[C@H]2[C@@H]3CCC4=CC(=O)CC[C@]4(C)[C@H]3CC[C@]12C` [DESOXYCORTICOSTERONE ACETATE]: the inhibition at 50 µM was found to be 1%.

For the molecule `c1ccc2c(c1)CN1CCCC1=N2` [DESOXYPEGANINE HYDROCHLORIDE], the inhibition at 50 µM turned out to be 0%. In the case of `CC(=O)OCC(=O)[C@@]1(O)[C@H](C)C[C@H]2[C@@H]3CCC4=CC(=O)C=C[C@]4(C)[C@@]3(F)[C@@H](O)C[C@@]21C` [DEXAMETHASONE ACETATE], the inhibition at 50 µM was found to be 0%.

Consider `CC(=O)Oc1cccc2c1C(=O)c1c(OC(C)=O)cc(C(=O)O)cc1C2=O` [DIACERIN], for which the “Inhibition (%)” value is 0.

With `NC[C@@H]1CC[C@@H](N)[C@@H](O[C@H]2[C@H](O)[C@@H](O[C@H]3O[C@H](CO)[C@@H](O)[C@H](N)[C@H]3O)[C@H](N)C[C@@H]2N)O1` [DIBEKACIN], the inhibition at 50 µM is 0%. Consider `c1ccc2c(c1)sc1ccccc12` [DIBENZOTHIOPHENE], for which the inhibition at 50 µM came to 0%.

Consider `CCCCOC(=O)c1ccccc1C(=O)OCCCC` [DIBUTYL PHTHALATE], for which the inhibition at 50 µM came out at 0%. As for `Oc1ccc(Cl)cc1Cc1cc(Cl)ccc1O` [DICHLOROPHENE], the inhibition at 50 µM was 1%. Take `Cc1onc(-c2c(Cl)cccc2Cl)c1C(=O)N[C@@H]1C(=O)N2[C@@H]1SC(C)(C)[C@@H]2C(=O)O` [DICLOXACILLIN SODIUM]: the inhibition at 50 µM turned out to be 0%. On the same count and under the same terms, to `O=c1oc2ccccc2c(O)c1Cc1c(O)c2ccccc2oc1=O` [DICUMAROL] belongs 4%; to `C/C=C(/C(=C/C)c1ccc(O)cc1)c1ccc(O)cc1` [DIENESTROL], 2%. Take `CCN(CC)C(=O)N1CCN(C)CC1` [DIETHYLCARBAMAZINE CITRATE]: the inhibition at 50 µM was 1%.

As for `O=C(O)c1cc(-c2ccc(F)cc2F)ccc1O` [DIFLUNISAL], the inhibition at 50 µM was 5%.

Take `C[C@]12CC[C@H](O)C[C@H]1CC[C@@H]1[C@@H]2C[C@@H](O)[C@]2(C)[C@@H](C3=CC(=O)OC3)CC[C@]12O` [DIGOXIGENIN]: the inhibition at 50 µM was 2%. As a reminder, the IC50 is the concentration at which inhibition is half-maximal. Low readings indicate inhibition by little substance, high ones a need for much substance. For `Cc1c(O)c(O)cc2c1CC=C1[C@@]2(C)CC[C@@]2(C)[C@@H]3C[C@](C)(C(=O)O)CC[C@]3(C)CC[C@]12C` [DIHYDROCELASTROL], the IC50 was 21 µM and the inhibition at 50 µM amounted to 105%.

For the molecule `Nc1nc2c(c(=O)[nH]1)N=C(CNc1ccc(C(=O)N[C@@H](CCC(=O)O)C(=O)O)cc1)CN2` [DIHYDROFOLIC ACID], the inhibition at 50 µM turned out to be 49%. Regarding `CCCCCC1C(=O)CCC1CC(=O)O` (centres unmarked) [DIHYDROJASMONIC ACID], the inhibition at 50 µM was found to be 1%. Same read-out and setting: the figure for `Cc1cccc2c3c(ccc12)C1=C(C(=O)C3=O)[C@@H](C)CO1` [DIHYDROTANSHINONE I] is 115%; for `CN(C(=O)C(Cl)Cl)c1ccc(OC(=O)c2ccco2)cc1` [DILOXANIDE FUROATE] it is 4%; for `OCC(S)CS` (centres unmarked) [DIMERCAPROL] it is 125%.

Consider `OCCN(CCO)c1nc(N2CCCCC2)c2nc(N(CCO)CCO)nc(N3CCCCC3)c2n1` [DIPYRIDAMOLE], for which the inhibition at 50 µM worked out at 2%. Take `Cc1c(N(C)CS(=O)(=O)[O-])c(=O)n(-c2ccccc2)n1C.[Na+]` [DIPYRONE]: the “Inhibition (%)” value is recorded as 2. With `CC(CCc1ccc(O)cc1)NCCc1ccc(O)c(O)c1` (centres unmarked) [DOBUTAMINE HYDROCHLORIDE], the inhibition at 50 µM stood at 3%. As for `COc1cc2c(cc1OC)C(=O)C(CC1CCN(Cc3ccccc3)CC1)C2` (centres unmarked) [DONEPEZIL HYDROCHLORIDE], the inhibition at 50 µM amounted to 2%. Still for that read-out and setting: the figure for `NCCc1ccc(O)c(O)c1` [DOPAMINE HYDROCHLORIDE] is 2%; for `COc1cc2nc(N3CCN(C(=O)C4COc5ccccc5O4)CC3)nc(N)c2cc1OC` (centres unmarked) [DOXAZOSIN MESYLATE] it is 0%. The same measure, in the same setting: to `C[C@H]1O[C@@H](n2cc(F)c(=O)[nH]c2=O)[C@H](O)[C@@H]1O` [DOXIFLURIDINE] belongs 1%; to `C[C@H]1c2cccc(O)c2C(=O)C2=C(O)[C@]3(O)C(=O)C(C(N)=O)=C(O)[C@@H](N(C)C)[C@@H]3[C@@H](O)[C@@H]21` [DOXYCYCLINE HYDROCHLORIDE], 106%; to `CCN(CC)CCOC(=O)C(c1ccccc1)C1CCCCC1` (centres unmarked) [DROFENINE HYDROCHLORIDE], 0%.

Consider `CNCC[C@H](Oc1cccc2ccccc12)c1cccs1` [DULOXETINE HYDROCHLORIDE], for which the inhibition at 50 µM came to 1%. Same read-out and setting: to `CCCCOc1ccc(C(=O)CCN2CCCCC2)cc1` [DYCLONINE HYDROCHLORIDE] belongs 131%; to `Cn1c(=O)c2c(ncn2CC(O)CO)n(C)c1=O` (centres unmarked) [DYPHYLLINE], 1%.

On to `COc1cc(C)c(C(=O)Oc2cc(C)c(C(=O)O)c(O)c2C)c(OC)c1C` [D[…]], for which the inhibition at 50 µM turned out to be 35%. As for `O=c1c2ccccc2[se]n1-c1ccccc1` [EBSELEN], the inhibition at 50 µM came out at 6%.

As to `CCc1cn([C@H]2C[C@H](O)[C@@H](CO)O2)c(=O)[nH]c1=O` [EDOXUDINE], the inhibition at 50 µM turned out to be 0%. As for `CC[N+](C)(C)c1cccc(O)c1` [EDROPHONIUM CHLORIDE], the inhibition at 50 µM is 0%. For the molecule `O=c1oc2c(O)c(O)cc3c(=O)oc4c(O)c(O)cc1c4c23` [ELLAGIC ACID], the inhibition at 50 µM was found to be 7%. Regarding `CCn1cc(C(=O)O)c(=O)c2cc(F)c(N3CCNCC3)nc21` [ENOXACIN], the inhibition at 50 µM worked out at 0%.

With `CC1(C)[C@@H](O)CC[C@]2(C)[C@H]3C(=O)C=C4[C@@H]5C[C@@](C)(C(=O)O)CC[C@]5(C)CC[C@@]4(C)[C@]3(C)CC[C@@H]12` [ENOXOLONE], the inhibition at 50 µM amounted to 2%. Take `CCN1CCN(c2cc3c(cc2F)c(=O)c(C(=O)O)cn3C2CC2)CC1` [ENROFLOXACIN]: the inhibition at 50 µM worked out at 1%. Consider `CCC(C)C(=O)O[C@@H]1C[C@@]2(C)[C@H](c3ccoc3)OC(=O)CC23OC2(C)OC34[C@H](OC(=O)C(C)C)[C@@]3(O)[C@@H](OC(=O)C5(C)OC5C)[C@@]5(C)C[C@]3(O)[C@@](C)([C@H]5CC(=O)OC)C14O2` (some centres unmarked) [ENTANDROPHRAGMIN], for which the “Inhibition (%)” value came to 1. The same measure, in the same setting: the figure for `O=C(O[C@@H]1Cc2c(O)cc(O)cc2O[C@@H]1c1ccc(O)c(O)c1)c1cc(O)c(O)c(O)c1` [EPICATECHIN MONOGALLATE] is 86. Turning to `Oc1cc(O)c2c(c1)O[C@H](c1ccc(O)c(O)c1)[C@H](O)C2` [EPICATECHIN], the inhibition at 50 µM is 2%.

As to `O=C(Oc1cc(O)cc2c1C[C@@H](OC(=O)c1cc(O)c(O)c(O)c1)[C@@H](c1cc(O)c(O)c(O)c1)O2)c1cc(O)c(O)c(O)c1` [EPIGALLOCATECHIN 3.5-DIGALLATE], the “Inhibition (%)” value was found to be 88.

Regarding `O=C(O[C@@H]1Cc2c(O)cc(O)cc2O[C@@H]1c1cc(O)c(O)c(O)c1)c1cc(O)c(O)c(O)c1` [EPIGALLOCATECHIN-3-MONOGALLATE], the “Inhibition (%)” value was 87. As for `Oc1cc(O)c2c(c1)O[C@H](c1cc(O)c(O)c(O)c1)[C@H](O)C2` [EPIGALLOCATECHIN], the inhibition at 50 µM was 89%.

Consider `C[C@]12CC[C@H]3[C@@H](CCC4=CC(=O)CC[C@@]43C)[C@@H]1CC[C@H]2O` [EPITESTOSTERONE], for which the inhibition at 50 µM is 0%. For `CC(=O)O[C@@H]1CC2C(C)(C)C(=O)C3OC3[C@]2(C)C2CC[C@@]3(C)[C@H](c4ccoc4)OC(=O)C4OC43[C@@]21C` (some centres unmarked) [EPOXYGEDUNIN], the “Inhibition (%)” value is on record as 0. Take `C[C@]12CC[C@H]3C(=CCc4cc(O)ccc43)[C@@H]1CCC2=O` [EQUILIN]: the inhibition at 50 µM came to 1%. Consider `CC(=O)O[C@H]1CC[C@@]2(C)C(=CC=C3[C@@H]4CC[C@H]([C@H](C)/C=C/[C@H](C)C(C)C)[C@@]4(C)CC[C@@H]32)C1` [ERGOSTEROL ACETATE], for which the “Inhibition (%)” value was 2. For `CC(C)[C@@H](C)/C=C/[C@@H](C)[C@H]1CC[C@H]2C3=CC=C4C[C@@H](O)CC[C@]4(C)[C@H]3CC[C@]12C` [ERGOSTEROL], the inhibition at 50 µM came out at 0%.

Take `CN1C[C@H](C(=O)N[C@]2(C)O[C@@]3(O)[C@@H]4CCCN4C(=O)[C@H](Cc4ccccc4)N3C2=O)C=C2c3cccc4[nH]cc(c34)C[C@H]21` [ERGOTAMINE TARTRATE]: the inhibition at 50 µM is 2%.

The values above are taken from paper PMC6627609, “Targeting Quorum Sensing: High-Throughput Screening to Identify Novel LsrK Inhibitors” (International Journal of Molecular Sciences, 2019).
